Results as given in PubChem BioAssay AID2842 (Southern Research Institute, 2010).
Converted amounts (≈) assume the structure as drawn.

test system: M. tuberculosis H37Rv growth inhibition; assay: Mycobacterium tuberculosis H37Rv growth inhibition, putative kinase inhibitor library, confirmatory dose response (AID 2842);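 also: bacteria incubated one week before Alamar blue readout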

SMILES	IC90 [µg/mL]
CN(C)S(=O)(=O)c1ccc(C(=O)Nc2nnc(-c3cc(Cl)ccc3Cl)o2)cc1	3.89 (≈ 8.81 µM)
CSc1cccc(-c2nnc(NC(=O)c3ccc([N+](=O)[O-])s3)o2)c1	1.58 (≈ 4.36 µM)
COc1ccc2nc(N=Nc3c(C)[nH]n(-c4ccccc4)c3=O)sc2c1	7.7 (≈ 21.1 µM)
CCOC(=O)c1cnc2ccc(OCC)cc2c1Nc1ccccc1C	8.82 (≈ 25.2 µM)
O=[N+]([O-])c1cccc(-c2ccc(/C=N/O)o2)c1	11.9 (≈ 51.1 µM)
COc1ccccc1Cn1cc2c(-c3ccc(Cl)cc3)nnc-2c2ccccc21	8.89 (≈ 22.2 µM)
CCCC(=O)Nc1nnc(-c2ccc(Cl)s2)o1	27.2 (≈ 100 µM)
CCC(=O)Nc1nnc(-c2ccc(Cl)s2)o1	8.62 (≈ 33.4 µM)
O=C(c1ccco1)N(CCCn1ccnc1)c1nc2c(F)cc(F)cc2s1	0.75 (≈ 1.93 µM)
O=C(OCn1nnc2ccccc2c1=O)c1cccs1	4.31 (≈ 15 µM)
O=C(CCCN1C(=O)/C(=C/c2ccco2)SC1=S)Nc1ccccc1	2.96 (≈ 7.95 µM)
O=C(Nc1ccc(I)cc1)c1ccc([N+](=O)[O-])s1	< 0.2
Cc1ccc(C)c(-c2nnc(NC(=O)c3cccc4ccccc34)o2)c1	0.41 (≈ 1.19 µM)
COc1ccccc1C(=O)Nc1nnc(-c2cc(C)ccc2C)o1	1.92 (≈ 5.94 µM)
Cc1ccc(NC(=O)c2oc3ccccc3c2NC(=O)CCl)cc1C	10.2 (≈ 28.5 µM)
Cc1cccc(C(=O)Nc2nnc(C3=COCCO3)o2)c1	3.36 (≈ 11.7 µM)
Fc1ccc(N2CCN(c3nc(Nc4ccccc4)c4nccnc4n3)CC2)cc1	1.69 (≈ 4.21 µM)
Cc1ccc(Cn2c(N3CCN(Cc4cccc5ccccc45)CC3)nc3c2c(=O)[nH]c(=O)n3C)cc1	25.4 (≈ 51.3 µM)
COc1cc(-c2nnc(NC(=O)C(C)(C)C)o2)cc(OC)c1OC	14.5 (≈ 43.1 µM)
O=C(Nc1nnc(-c2cccs2)o1)c1ccc([N+](=O)[O-])s1	1.69 (≈ 5.24 µM)
COc1ccc(N2CC(c3nc4ccccc4n3Cc3ccccc3C)CC2=O)cc1 (stereo unspecified)	20.1 (≈ 48.8 µM)
CC(=O)N1CCc2c(sc(NC(=O)c3ccc(C)cc3)c2C(N)=O)C1	8.93 (≈ 25 µM)
Cc1ccc(Cl)cc1N1CCN(CC(O)COc2ccccc2[N+](=O)[O-])CC1 (stereo unspecified)	13 (≈ 32.1 µM)
CC(C)c1ccc(-c2csc(NC(=O)c3ccc4c(c3)OCCO4)n2)cc1	3.39 (≈ 8.91 µM)

SMILES	IC90 [µg/mL]
COc1ccc(-c2nnc(NC(=O)c3ccc(Cl)s3)o2)cc1	0.94 (≈ 2.8 µM)
COc1ccc2sc(Nc3nc(-c4ccccn4)cs3)nc2c1	1.59 (≈ 4.67 µM)
Cc1nc2cc(NC(=O)Nc3ccc(Cl)cc3)ccc2n1-c1ccccc1	6.97 (≈ 18.5 µM)
O=C(Nc1nnc(-c2ccc3c(c2)CCCC3)o1)c1c(F)cccc1F	4.5 (≈ 12.7 µM)
Cc1ccc(C)c(-c2nnc(NC(=O)c3ccccc3F)o2)c1	< 0.2
CCOc1ccc(NCCCn2c(C)cn3c4c(=O)[nH]c(=O)n(C)c4nc23)cc1	20.5 (≈ 51.7 µM)
N#CC1=C(N)OC2=C(C(=O)CC(c3ccccc3)C2)C1C1CCCCC1 (stereo unspecified)	7.8 (≈ 22.4 µM)
O=C(Nc1nnc(-c2ccncc2)o1)c1ccc(F)cc1	3.23 (≈ 11.4 µM)
Cc1ccc(NC(=O)CC2C(=O)Nc3ccccc3N2C(=O)c2ccc(Br)cc2)cc1C (stereo unspecified)	2.24 (≈ 4.55 µM)
COc1cccc2sc(Nc3nc4ccc(C(C)C)cc4s3)nc12	2.24 (≈ 6.3 µM)
Cc1ccc(-c2nnc(NC(=O)c3ccc(S(=O)(=O)N(C)C)cc3)o2)c(C)c1	41.1 (≈ 103 µM)
COc1ccc(OC)c2sc(N(CCCn3ccnc3)C(=O)c3ccco3)nc12	6.7 (≈ 16.2 µM)
CCOC(=O)c1cnc2ccc(OCC)cc2c1Nc1cccc(C)c1	14.1 (≈ 40.3 µM)
CCOC(=O)Cn1c(=NC(=O)c2ccc([N+](=O)[O-])s2)sc2cc(S(C)(=O)=O)ccc21	21.8 (≈ 46.5 µM)
COc1ccccc1C(=O)Nc1nnc(-c2ccc(Cl)cc2)o1	3.86 (≈ 11.7 µM)
COc1ccc(-c2nnc(NC(=O)c3cc4ccccc4cc3OC)o2)cc1	26.3 (≈ 70.2 µM)
Cc1ccc(C)c(-c2nnc(NC(=O)c3ccccc3C)o2)c1	2.48 (≈ 8.07 µM)
Cc1ccccc1C(=O)N=Nc1c(O)[nH]c2ccc(Br)cc12	30.8 (≈ 85.9 µM)
COc1ccc(-c2nnc(NC(=O)c3ccc4c(c3)OCCO4)o2)c(OC)c1	24.7 (≈ 64.4 µM)
C=CCn1c(=NC(=O)c2ccc([N+](=O)[O-])s2)sc2cc(S(N)(=O)=O)ccc21	< 0.2
COc1ccc(C2c3cccn3CCN2C(=O)Nc2ccc(Cl)cc2)cc1 (stereo unspecified)	9.87 (≈ 25.8 µM)
COc1ccc(Cn2cc3c(-c4ccccc4)nnc-3c3cc(OC)c(OC)cc32)cc1	6.64 (≈ 15.6 µM)
O=C(CCc1ccccc1)Nc1nnc(-c2ccc(Cl)s2)o1	2.27 (≈ 6.8 µM)
COc1cc2ccccc2cc1C(=O)Nc1nnc(-c2ccc(F)cc2)o1	5.59 (≈ 15.4 µM)

SMILES	IC90 [µg/mL]
COc1cc2ccccc2cc1C(=O)Nc1nnc(-c2cc(C)ccc2C)o1	1.23 (≈ 3.29 µM)
CCOC(=O)N1CCN(c2ncnc3c2cnn3-c2ccc(C)c(Cl)c2)CC1	12.2 (≈ 30.5 µM)
Cc1ccc(C)c(-c2nnc(NC(=O)C(C)C)o2)c1	6.62 (≈ 25.5 µM)
COc1cccc2sc(Nc3nc4c(s3)CCCC4)nc12	5.82 (≈ 18.3 µM)
Cc1ccc(C(=O)Nc2cccc(-c3ccc4nnc(C)n4n3)c2)cc1C	12.9 (≈ 36 µM)
Cc1cc(C)c2sc(NNC(=O)c3nc4ccccc4s3)nc2c1	15.5 (≈ 43.7 µM)
COc1cc(C=NNC(=O)Nc2cccc(Cl)c2)ccc1O	8.5 (≈ 26.6 µM)
O=C(Nc1nnc(-c2cc(Cl)ccc2Cl)o1)c1ccccc1F	0.43 (≈ 1.22 µM)
O=C(Cc1cccc2ccccc12)Nc1nc(-c2ccc(Br)s2)cs1	15.7 (≈ 36.5 µM)
CC(=O)Oc1cc(C)cc2oc(=O)c3c(c12)CCCC3	6.79 (≈ 24.9 µM)
COc1ccc(-c2ccc(C3C(C#N)=C(N)Oc4n[nH]c(C)c43)o2)cc1 (stereo unspecified)	4.92 (≈ 14.1 µM)
O=C(Nc1nnc(-c2cc(Cl)ccc2Cl)o1)c1ccc(S(=O)(=O)N2CCCC2)cc1	25.6 (≈ 54.8 µM)
Cc1ccc2sc(NNC(=O)c3nc4ccccc4s3)nc2c1C	3.31 (≈ 9.34 µM)
N#Cc1ccccc1NC(=O)C(=O)NCCSc1ncc(-c2ccccc2)[nH]1	4.48 (≈ 11.4 µM)
Cc1ccc(Cn2cc3c(-c4ccc(C)c(C)c4)nnc-3c3cc4c(cc32)OCCO4)cc1	11.5 (≈ 26.5 µM)
CCOc1ccc(-c2nnc3c4cc5c(cc4n(Cc4cccc(F)c4)cc2-3)OCO5)cc1	54.2 (≈ 123 µM)
O=C(Nc1nnc(-c2cccs2)o1)c1ccc2c(c1)CCCC2	37.6 (≈ 116 µM)
CSc1ccccc1-c1nnc(NC(=O)c2cc(Cl)ccc2Cl)o1	0.98 (≈ 2.58 µM)
O=C(Nc1nc2c(s1)CCc1ccccc1-2)c1cccc(Br)c1	16.8 (≈ 43.6 µM)
Fc1cccc2sc(Nc3nnc(-c4ccccc4Cl)o3)nc12	16.8 (≈ 48.3 µM)
CC(C)(C)c1ccc(C(=O)Nc2nnc(-c3ccc(S(C)(=O)=O)cc3)o2)cc1	24.6 (≈ 61.7 µM)
COc1ccc2nc(Nc3nc(C(C)(C)C)cs3)sc2c1	10.1 (≈ 31.7 µM)
c1ccc2c(c1)CCN(c1nc3cc4c(cc3s1)OCCO4)C2	16 (≈ 49.4 µM)
O=C(Cc1ccc(-c2ccccc2)cc1)Nc1nnc2n1CCS2	13.5 (≈ 40.2 µM)

SMILES	IC90 [µg/mL]
CCOc1ccc2c(c1)c1nnc(-c3ccc(OC)cc3)c-1cn2Cc1ccccc1F	4.73 (≈ 11.1 µM)
COc1ccccc1Cn1cc2c(-c3ccc(F)cc3)nnc-2c2cc(C)ccc21	49.2 (≈ 124 µM)
CSc1cccc2sc(Nc3cccc(Cl)c3)nc12	5.38 (≈ 17.5 µM)
COC(=O)CSc1ncnc2c1cnn2-c1ccc(F)cc1	4.54 (≈ 14.3 µM)
Cc1ccc(C)c(-c2nnc(NC(=O)Cc3cccc4ccccc34)o2)c1	6.3 (≈ 17.6 µM)
CN1CCc2c(sc(NC(=O)c3ccc(C(C)(C)C)cc3)c2C(N)=O)C1	12.7 (≈ 34.2 µM)
CC(=O)Nc1ccc2nc(Nc3nc4ccc(Cl)cc4s3)sc2c1	8.93 (≈ 23.8 µM)
COc1cccc2sc(Nc3nc4c(F)cccc4s3)nc12	14.5 (≈ 43.6 µM)
O=C(NCCSc1c[nH]c2ccccc12)c1cc2ccccc2oc1=O	1.58 (≈ 4.34 µM)
O=C(NNc1nc2ccc(Cl)cc2s1)c1cc(-c2cccs2)nc2ccccc12	30.9 (≈ 70.8 µM)
Cc1ccc(C)c(-c2nnc(NC(=O)c3ccc(Cl)cc3)o2)c1	22.7 (≈ 69.2 µM)
COc1ccc(C(=O)Nc2nc3c(s2)CCCC3)c(OC)c1	6.13 (≈ 19.3 µM)
O=C(Nc1nnc(C2=COCCO2)o1)c1ccc(-c2ccccc2)cc1	8.24 (≈ 23.6 µM)
Cc1c(Cl)ccc2sc(N(CCCn3ccnc3)C(=O)/C=C/c3cccs3)nc12	0.24 (≈ 0.542 µM)
COc1ccc(-c2nnc(NC(=O)c3cccc(C)c3)o2)cc1	87.7 (≈ 283 µM)
CCOc1cc(-c2nnc(NC(=O)C3=COCCO3)o2)cc(OCC)c1OCC	7 (≈ 17.3 µM)
COc1ccc2nc(Nc3sc4c(c3C(N)=O)CCC(C)C4)sc2c1 (stereo unspecified)	27.8 (≈ 74.5 µM)
Clc1ccc(Cn2nnc3c(SCc4cccnc4)ncnc32)cc1	13.4 (≈ 36.3 µM)
O=C(CCOc1ccccc1)Nc1nnc(-c2ccccc2)o1	6.68 (≈ 21.6 µM)
O=C(Nc1nnc(-c2ccc(Br)cc2)o1)C1=COCCO1	24.9 (≈ 70.8 µM)
Cc1ccc(C)c(-c2nnc(NC(=O)C(C)(C)C)o2)c1	1.32 (≈ 4.83 µM)
Cc1ccc2nc(NNC(=O)c3cccc(F)c3)sc2c1	7.65 (≈ 25.4 µM)
Cc1c(C)n2c3c(=O)[nH]c(=O)n(C)c3nc2n1-c1ccccc1O	0.75 (≈ 2.31 µM)
Cc1ccc(C(=O)Nc2nnc(-c3ccncc3)o2)cc1C	26.8 (≈ 91 µM)

SMILES	IC90 [µg/mL]
COc1cccc(-c2nnc(NC(=O)c3ccccc3Cl)o2)c1	2.69 (≈ 8.16 µM)
CCOC(=O)c1c(NC(=O)/C=C/C(N)=O)sc2c1CCCC2	6.76 (≈ 21 µM)
O=C(OCn1nnc2ccccc2c1=O)c1ccccc1	1.41 (≈ 5.01 µM)
Cc1ccc(-c2csc(Nc3nc4cc5c(cc4s3)OCO5)n2)o1	26.6 (≈ 74.5 µM)
O=C(CCOc1ccccc1)Nc1nnc(-c2cc(Cl)ccc2Cl)o1	1.79 (≈ 4.73 µM)
Cc1cccc(N2CCN(C(=O)CCCCCn3c(=O)[nH]c4ccsc4c3=O)CC2C)c1 (stereo unspecified)	19.5 (≈ 42.9 µM)
Oc1ccc(Nc2nc(NCc3ccccc3)c3ccccc3n2)cc1	2.59 (≈ 7.56 µM)
Cc1ccc(-c2nnc(NC(=O)COc3ccccc3)o2)c(C)c1	5.5 (≈ 17 µM)
COc1ccc(-c2cc3ccccc3n2CC(O)CNCCc2ccccc2)cc1 (stereo unspecified)	4.11 (≈ 10.3 µM)
Cc1ccc(NCCCn2c(C)c(C)n3c4c(=O)[nH]c(=O)n(C)c4nc23)c(C)c1	14.3 (≈ 36.2 µM)
CCOC(=O)COc1ccc2c(C)c(-c3ccc(OC)c(OC)c3)c(=O)oc2c1	2.34 (≈ 5.87 µM)
CCOc1ccc2nc(N3CCCC3)sc2c1	17.2 (≈ 69.3 µM)
CC(C)N1CCc2c(sc(NC(=O)c3nc4ccccc4s3)c2C(N)=O)C1	12.9 (≈ 32.3 µM)
COc1ccc2nc(Nc3nc4c(s3)C(=O)CC(C)(C)C4)sc2c1	15.7 (≈ 43.7 µM)
O=c1c2ccccc2oc2cc(O)ccc12	50 (≈ 236 µM)
O=C(Nc1nnc(-c2ccc3c(c2)CCCC3)o1)c1ccc(Cl)s1	3.63 (≈ 10.1 µM)
CCOc1ccc(-c2nnc3c4cc5c(cc4n(Cc4cccc(OC)c4)cc2-3)OCCO5)cc1	3.52 (≈ 7.53 µM)
CCOC(=O)c1cc(NC(=O)Nc2ccc(Cl)c(Cl)c2)c(C)nc1C	12.4 (≈ 32.5 µM)
Cc1ccc(C)c(-c2nnc(NC(=O)c3ccc(S(=O)(=O)N4CCc5ccccc54)cc3)o2)c1	12.4 (≈ 26.1 µM)
Clc1cccc(Nc2ccc(NCc3ccccc3)nn2)c1	6.71 (≈ 21.6 µM)
